Values quoted from earlier work, collected in patent publication US20250122197A1, “PROCESS FOR […] ISOLATING ATROPISOMERS OF 7-CHLORO-6-FLUORO-1-(2-ISOPROPYL-4-METHYLPYRIDIN-3-YL)PYRIDO[2,3-D]PYRIMIDINE-2,4(1H,3H)-DIONE” (AMGEN INC., priority 2020, published 2025).

Legend:
[1] = tested on: phosphorylation of extracellular signal-regulated kinase (ERK); details: preclinical studies, Canon et al. Nature 2019
KRAS p.G12C tumors = details: mice bearing KRAS p.G12C tumors, Canon et al. Nature 2019

C=CC(=O)N1CCN(c2nc(=O)n(-c3c(C)ccnc3C(C)C)c3nc(-c4c(O)cccc4F)c(F)cc23)[C@@H](C)C1 [AMG 510]
Inhibition of ERK phosphorylation [1]: inhibited nearly all detectable phosphorylation
Tumor regression (KRAS p.G12C tumors): durable complete tumor regression
